According to US20250195528A1, “DOSE REGIMEN OF VICASINABIN” (Hoffmann-La Roche Inc., priority 2022, published 2025):
“Also recorded” adds a separate entry of the source.

Columns and labels:
[1] = biological target: cynomolgus monkey CB2 (Macaca fascicularis, UniProt G7NVV5); assay: Radioligand binding to CB2, CHO cells
[2] = biological target: T1, CB2 (Rattus norvegicus, UniProt Q9QZN9); assay: In vitro rat Ki; type: binding
T1 sequence (Q9QZN9 1-360): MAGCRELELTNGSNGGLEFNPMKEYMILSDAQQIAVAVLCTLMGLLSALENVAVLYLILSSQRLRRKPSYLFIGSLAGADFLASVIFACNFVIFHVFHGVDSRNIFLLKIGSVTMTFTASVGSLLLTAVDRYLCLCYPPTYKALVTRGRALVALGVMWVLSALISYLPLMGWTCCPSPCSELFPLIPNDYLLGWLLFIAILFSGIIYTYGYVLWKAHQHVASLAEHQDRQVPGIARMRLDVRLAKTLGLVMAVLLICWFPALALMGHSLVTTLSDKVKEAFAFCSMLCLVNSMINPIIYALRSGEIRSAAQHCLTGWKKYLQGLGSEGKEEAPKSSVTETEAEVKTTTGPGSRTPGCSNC
Description: FIG. 10 illustrates Disease Markers versus Free Exposure of the Active S-Epimer RO6868847 in Several Animal Models. […] Disease markers (hyperfluorescence area in mm^2, OD retina-plasma fluorescein ratio, number of leukocytes per mm^2 or total length of processes in mm) as a percent of the control value (100% represents the vehicle-treated diabetic control and 0% for vehicle-treated healthy control) in different in vivo PD models as a function of the free AUC0-24 of the active S-epimer RO6868847.
(§1) Based on this integrated assessment, the pharmacologically active exposure range observed in rats spans 2 logs, with an upper bound (unbound AUC0-24 [S-epimer]=546 ng·hr/mL) corresponding to the full effect at 10 mg/kg in a rat STZ-induced Type 1 diabetes model and the lower bound (unbound AUC0-24 [S-epimer]=2.8 ng·hr/mL) corresponding to 50% decrease in disease marker (hypoerfluorescence area) in a laser-induced NV rat model.

[3] = biological target: human CB1 (Homo sapiens, UniProt P21554); assay: Human CB1 binding assay
[4] = system: 15-lipoxygenase, MAGL, diacylglycerol lipase, or FAAH enzymes; assay: Functional cellular assays, enzymes of the endocannabinoid pathway; type: cell-based; conditions: up to 500 μM in human targets
[5] = system: laser-induced neovascularization; type: in vivo, rat
Protocol: Pharmacological studies were performed in vitro and in vivo to investigate the potency, selectivity and activity of RO6868847. Pharmacological effects were determined in vivo in two different diabetic animal models which include the streptozotocin (STZ)-induced rat Type 1 diabetes and genetic Type 2 diabetes mouse models as well as in two acute models with acute inflammatory stimulus (LPS-injections) or laser injury (CNV). Additional in vitro pharmacology studies were performed to explore the pharmacological effect of RO6868847 and the suitability of the assays as biomarkers of target engagement and pharmacodynamic effect (PD) in human whole blood obtained from either healthy volunteers or diabetic patients.
The diversity of the tested models (including acute challenge versus disease-modifying models) and the absence of a recommended nonclinical DME/DR model with proven clinical translatability presents a challenge for the estimation of pharmacologically active exposure in humans.
Exposure was derived from satellite animals or extrapolated from previous PK or PD studies in the same species.
as §1

[6] = biological target: T2, CB2 receptor on B-cells (Homo sapiens, UniProt P34972); assay: CB2 receptor target engagement on B-cells in blood of participants of Study BP40387; type: in vivo
T2 construct: B cells show a low but robust surface expression of CB2; endogenous in cells; host or cells: B cells in human whole blood (healthy participants, diabetic patients)
Protocol: In the Phase I single ascending dose (SAD) and multiple ascending dose (MAD) study (BP40387), CB2R-TE was measured in blood from healthy participants that received single and multiple 0.75-300 mg doses of RO6868847. Based on clinical RO6868847 pharmacokinetics (PK) and pharmacodynamics (PD; measured by CB2R-TE) data and accounting for the difference between healthy and diabetics subjects, the lower end of the 0.75 mg to 300 mg-dose range is expected to achieve approximately up to half-maximum CB2R-TE, whereas the higher end of that dose range is predicted to achieve maximum CB2R-TE.
In example 2, target engagement of RO6868847 was assessed on circulating B-cells from whole blood samples utilizing a newly developed exploratory flow cytometry assay to monitor RO6868847-induced CB2 receptor internalization on B-cells. […] Upon treatment discontinuation CB2 receptor surface expression returned to baseline approximately within 1 week. Target engagement appeared to reach a plateau at doses of 100 mg RO6868847 with only marginal increases at higher doses of RO6868847. In example 2, pro-inflammatory cytokine production was induced by ex vivo stimulation with LPS in freshly obtained whole blood samples, to measure downstream markers of RO6868847-mediated CB2 receptor internalization and explore its pharmacological profile. Serum levels of TNF-α, G-CSF, IL-1β, and […], of participants in Study BP40387 were assessed to investigate the changes of these cytokines in the presence of repeated dose administration of up to 300 mg RO6868847 once-daily for 14 days. […] It should be noted that the IL1-β analysis was negatively affected by a substantial proportion of baseline data, not being reportable (see FIG. 8), especially at the highest tested doses of 300 mg of RO6868847. Substantial variability in these measurements was observed. However, this was expected and no dedicated predefined statistical analysis was performed since cohort sizes were small for this exploratory assessment.

[7] = Study BP40387 Part 1 (SAD) pharmacokinetics, healthy participants; type: in vivo, human; conditions: single and multiple dose, on average
[8] = clinical; conditions: both, human, plasma, oral
Protocol: Study BP40387 was a Phase I study that was conducted in healthy male and female participants, and included 5 parts. Part 1 (SAD) consisted of an adaptive, single-ascending-dose, investigator/participant-blind, randomized, placebo-controlled, parallel study to investigate the safety, tolerability, and pharmacokinetics of RO6868847. Part 2 (FE), was designed as an open-label, randomized, two-period crossover, single dose investigation of the effect of food on the pharmacokinetics of RO6868847. Part 3 (MAD), was an adaptive, multiple-ascending-dose, investigator/participant-blind, randomized, placebo-controlled, parallel study to investigate the safety, tolerability, and pharmacokinetics of RO6868847 administered once-daily for 14 days. Part 4 (DDI-CYP Induction), was a non-randomized, open-label, fixed-sequence, two-period study to explore RO6868847-mediated CYP induction at 300 mg administered once-daily for 14 days, using midazolam, repaglinide, and bupropion as probe substrates for CYP3A, CYP2C8, and CYP2B6, respectively. […] Overall, in Part 1 (SAD), a total of 33 healthy participants received single oral doses of RO6868847 ranging between 0.75 mg and 300 mg, and 12 participants received placebo under fasting conditions. In Part 2 (FE), 8 participants received a single oral dose of 100 mg RO6868847 once after an overnight fast of at least 10 hours and once within 30 minutes after starting a high-calorie, high-fat breakfast. In Part 3 (MAD), a total of 30 participants received multiple oral doses of 6 mg to 300 mg RO6868847 QD for 14 days, and 10 participants received placebo.
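Throughout, for AUC: phase I trial BP40387 in healthy male and female volunteers.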
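Throughout, for Cmax: phase I trial BP40387 in healthy male and female volunteers.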
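Throughout, for Tmax: phase I trial BP40387 in healthy male and female volunteers.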

T2 sequence (P34972 whole entry): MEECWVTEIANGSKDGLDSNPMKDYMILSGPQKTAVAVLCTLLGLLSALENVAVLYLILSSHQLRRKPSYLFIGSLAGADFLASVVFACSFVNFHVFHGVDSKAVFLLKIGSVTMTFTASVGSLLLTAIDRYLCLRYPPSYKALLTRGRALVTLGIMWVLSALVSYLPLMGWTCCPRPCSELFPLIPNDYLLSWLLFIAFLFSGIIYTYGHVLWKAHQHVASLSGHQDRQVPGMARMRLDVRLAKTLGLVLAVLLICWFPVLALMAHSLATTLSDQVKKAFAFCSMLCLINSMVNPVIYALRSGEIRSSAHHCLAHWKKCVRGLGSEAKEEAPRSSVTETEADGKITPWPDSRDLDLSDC
Chain of human CB1 (P21554 whole entry): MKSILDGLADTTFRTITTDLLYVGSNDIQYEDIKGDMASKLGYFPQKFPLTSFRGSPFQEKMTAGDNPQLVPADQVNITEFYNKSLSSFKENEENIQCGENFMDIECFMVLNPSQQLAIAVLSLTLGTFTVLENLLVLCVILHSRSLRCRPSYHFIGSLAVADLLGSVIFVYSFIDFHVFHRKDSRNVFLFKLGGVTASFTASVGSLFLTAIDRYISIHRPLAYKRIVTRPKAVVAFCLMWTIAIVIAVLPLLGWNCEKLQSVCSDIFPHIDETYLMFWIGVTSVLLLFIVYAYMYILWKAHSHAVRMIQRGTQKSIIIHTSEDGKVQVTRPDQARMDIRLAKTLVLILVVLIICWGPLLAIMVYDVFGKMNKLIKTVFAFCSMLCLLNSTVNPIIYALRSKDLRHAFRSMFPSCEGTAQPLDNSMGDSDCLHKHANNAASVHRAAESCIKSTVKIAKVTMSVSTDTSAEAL
Chain of cynomolgus monkey CB2 (G7NVV5 1-360): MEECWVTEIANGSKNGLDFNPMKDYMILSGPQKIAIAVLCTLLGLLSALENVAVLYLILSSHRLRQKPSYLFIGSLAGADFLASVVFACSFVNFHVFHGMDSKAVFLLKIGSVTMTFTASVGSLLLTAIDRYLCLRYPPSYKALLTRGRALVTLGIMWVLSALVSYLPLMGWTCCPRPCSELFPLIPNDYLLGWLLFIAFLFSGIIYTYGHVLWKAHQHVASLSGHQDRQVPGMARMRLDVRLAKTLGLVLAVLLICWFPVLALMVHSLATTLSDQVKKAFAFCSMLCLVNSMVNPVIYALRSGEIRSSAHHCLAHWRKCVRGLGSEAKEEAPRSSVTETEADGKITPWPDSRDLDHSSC

With `Cn1nnnc1Cn1nnc2c(N3CC[C@H](O)C3)nc(C(C)(C)C)nc21` [RO6868847, (3S)-1-[5-tert-butyl-3-[(1-methyltetrazol-5-yl)methyl]triazolo[4,5-d]pyrimidin-7-yl]pyrrolidin-3-ol] the IC50 [1] was 103 ± 17.2 nM, the Ki ([1]; read-out: Ki ± SE) was 66.8 nM and the Ki ([2]; rat) was 33.3 nM. For the same compound, the “unbound AUC0-24 at in vitro rat Ki as share of upper bound of active exposure” value ([2]; rat) was 52%, the “free AUC0-24 extrapolated from rat Ki” value ([2]; rat Ki x 24) was 286 ng·h/mL and the Ki ([2]; rat, converted from nM) was 33.5 nM. For the same compound, the Ki [3] was > 10000 nM, the “CB1/CB2 Ratio (binding selectivity)” value ([3]; CB1 Ki over CB2 Ki) was >195 fold and the “affinity for human CB1” value ([3]; highest concentration of 10 μM) was “no affinity”. The “activity at endocannabinoid pathway enzymes” value [4] was “no activity”, the “decrease in disease marker (hyperfluorescence area)” value ([5]; rat, at unbound AUC0-24 2.8 ng·hr/mL) was 50% and the “unbound AUC0-24 [S-epimer], lower bound of pharmacologically active exposure” value ([5]; rat, in vivo) was 2.8 ng·hr/mL. For the same compound, the retinal hyperfluorescence ([5]; rodent laser injury model) was “reduction of retinal hyperfluorescence”, the “time for CB2 receptor surface expression to return to baseline” value ([6]; after treatment discontinuation) was ≤ 1 week and the “dose at which target engagement reaches a plateau” value ([6]; multiple dose) was 100 mg. For the same compound, the “CB2 receptor target engagement on B-cells in blood” value ([6]; single and multiple oral doses up to 300 mg) was “reversible, dose-dependent and sustained; also recorded: dose-dependent, long-lasting, but reversible”, the “Renal excretion, share of the dose administered” value [7] was “less than 5%” and the half-life [8] was 8.27 to 39 h. For the same compound, the AUC ([8]; 6 mg) was 870 ng·h/mL, the Cmax ([8]; 6 mg) was 97.9 ng/mL and the half-life ([8]; 6 mg) was 8.27 h. For the same compound, the AUC ([8]; 20 mg) was 2610 ng·h/mL, the Cmax ([8]; 20 mg) was 289 ng/mL and the Tmax ([8]; 20 mg) was 1.06 h. It also gave a half-life ([8]; 20 mg) of 15 h, an AUC ([8]; 60 mg) of 8480 ng·h/mL and a Cmax ([8]; 60 mg) of 899 ng/mL. For the same compound, the Tmax ([8]; 60 mg) was 2 h, the half-life ([8]; 60 mg) was 31.6 h and the AUC ([8]; 200 mg) was 21400 ng·h/mL. The Cmax ([8]; 200 mg) was 2380 ng/mL, the Tmax ([8]; 200 mg) was 3 h and the AUC ([8]; 300 mg) was 27100 ng·h/mL. It also gave a Cmax ([8]; 300 mg) of 2970 ng/mL, a Tmax ([8]; 300 mg) of 2.5 h and a half-life ([8]; 300 mg) of 39 h.
